# Laboratory results from patent publication US11739098B2 (BRISTOL-MYERS SQUIBB COMPANY, priority 2017, dated 2023).
# Tests used:
# Type in all cases: cell-based
# human TLR9 = molecular target: T1, human TLR9 (Homo sapiens, UniProt Q9NR96); assay: TLR9 inhibition reporter assay (HEK-Blue cells, SEAP reporter, ODN2006 stimulation); settings: HEK-Blue cells overexpressing human TLR9, SEAP reporter, ODN2006 5 nM
# T1 construct: host or cells: HEK-Blue cells (HEK293-derived reporter line)
# T1 sequence (Q9NR96 26-1032): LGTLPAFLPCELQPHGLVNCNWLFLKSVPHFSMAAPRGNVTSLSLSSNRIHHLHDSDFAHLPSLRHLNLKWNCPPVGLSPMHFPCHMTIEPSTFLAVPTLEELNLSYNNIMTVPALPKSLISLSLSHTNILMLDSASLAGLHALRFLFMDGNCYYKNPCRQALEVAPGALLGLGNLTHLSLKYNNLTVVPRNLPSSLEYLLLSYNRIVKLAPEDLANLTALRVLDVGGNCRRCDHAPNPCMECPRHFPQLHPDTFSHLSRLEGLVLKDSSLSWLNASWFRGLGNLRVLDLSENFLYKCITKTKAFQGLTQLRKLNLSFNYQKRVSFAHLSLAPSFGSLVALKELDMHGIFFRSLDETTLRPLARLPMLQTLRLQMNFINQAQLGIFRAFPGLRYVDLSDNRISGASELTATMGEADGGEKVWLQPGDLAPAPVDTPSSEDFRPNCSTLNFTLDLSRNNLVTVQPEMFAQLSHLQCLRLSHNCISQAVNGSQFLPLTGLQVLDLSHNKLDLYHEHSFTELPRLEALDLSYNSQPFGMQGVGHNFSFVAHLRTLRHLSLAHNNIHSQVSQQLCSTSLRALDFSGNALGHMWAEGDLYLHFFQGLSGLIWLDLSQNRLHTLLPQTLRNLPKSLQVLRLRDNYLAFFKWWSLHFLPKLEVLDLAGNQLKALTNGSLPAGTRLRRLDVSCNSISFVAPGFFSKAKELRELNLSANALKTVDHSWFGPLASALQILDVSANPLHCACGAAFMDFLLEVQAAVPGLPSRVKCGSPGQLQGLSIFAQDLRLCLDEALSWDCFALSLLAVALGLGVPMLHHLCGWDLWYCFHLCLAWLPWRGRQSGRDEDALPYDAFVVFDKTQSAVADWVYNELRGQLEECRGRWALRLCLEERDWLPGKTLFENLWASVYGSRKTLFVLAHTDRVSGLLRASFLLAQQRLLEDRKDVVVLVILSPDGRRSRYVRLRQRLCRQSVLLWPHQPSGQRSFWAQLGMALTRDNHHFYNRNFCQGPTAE
# Summary of the method: (§1)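 HEK-Blue cells overexpressing human TLR7, TLR8 or TLR9 (NF-κB/AP-1-driven SEAP) pre-treated 30 min at room temperature with compound (0.05 nM–50 μM), then stimulated with gardiquimod 7.5 μM (TLR7), R848 15.9 μM (TLR8) or ODN2006 5 nM (TLR9). SEAP read colorimetrically after 22 h at 37 °C; % inhibition calculated.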
# human TLR7 = molecular target: T2, human TLR7 (Homo sapiens, UniProt Q9NYK1); assay: TLR7 inhibition reporter assay (HEK-Blue cells, SEAP reporter, gardiquimod stimulation); settings: HEK-Blue cells overexpressing human TLR7, SEAP reporter, gardiquimod 7.5 μM
# T2 construct: host or cells: HEK-Blue cells (HEK293-derived reporter line)
# T2 sequence (Q9NYK1 27-1049): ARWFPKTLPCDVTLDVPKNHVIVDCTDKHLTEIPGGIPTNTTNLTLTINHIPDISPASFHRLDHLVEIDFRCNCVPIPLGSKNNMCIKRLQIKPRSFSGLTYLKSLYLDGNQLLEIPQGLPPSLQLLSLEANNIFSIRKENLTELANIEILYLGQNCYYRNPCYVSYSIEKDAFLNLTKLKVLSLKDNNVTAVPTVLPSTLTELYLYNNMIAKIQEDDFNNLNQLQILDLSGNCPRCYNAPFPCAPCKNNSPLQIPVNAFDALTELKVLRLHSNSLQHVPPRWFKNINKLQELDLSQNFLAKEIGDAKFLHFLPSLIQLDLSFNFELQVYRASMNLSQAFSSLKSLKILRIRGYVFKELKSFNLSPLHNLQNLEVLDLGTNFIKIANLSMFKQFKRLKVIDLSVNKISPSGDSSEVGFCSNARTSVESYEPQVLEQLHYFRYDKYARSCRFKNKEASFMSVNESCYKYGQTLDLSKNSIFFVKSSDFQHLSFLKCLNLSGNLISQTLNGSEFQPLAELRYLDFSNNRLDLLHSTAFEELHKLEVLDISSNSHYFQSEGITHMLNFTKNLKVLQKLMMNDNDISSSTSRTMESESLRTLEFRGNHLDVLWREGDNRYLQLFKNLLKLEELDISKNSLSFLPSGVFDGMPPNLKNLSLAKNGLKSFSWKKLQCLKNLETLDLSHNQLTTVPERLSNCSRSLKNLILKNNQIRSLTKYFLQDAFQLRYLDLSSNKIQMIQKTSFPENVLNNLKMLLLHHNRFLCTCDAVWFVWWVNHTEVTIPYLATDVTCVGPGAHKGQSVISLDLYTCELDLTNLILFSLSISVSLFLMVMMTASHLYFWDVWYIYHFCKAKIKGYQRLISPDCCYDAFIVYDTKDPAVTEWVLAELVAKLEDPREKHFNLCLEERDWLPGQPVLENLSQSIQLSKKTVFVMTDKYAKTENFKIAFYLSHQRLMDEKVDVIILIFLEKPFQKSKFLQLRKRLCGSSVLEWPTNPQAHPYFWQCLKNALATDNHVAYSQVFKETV
# Summary of the method: as §1
# human TLR8 = molecular target: T3, human TLR8 (Homo sapiens, UniProt Q9NR97); assay: TLR8 inhibition reporter assay (HEK-Blue cells, SEAP reporter, R848 stimulation); settings: HEK-Blue cells overexpressing human TLR8, SEAP reporter, R848 15.9 μM
# T3 construct: host or cells: HEK-Blue cells (HEK293-derived reporter line)
# T3 sequence (Q9NR97 27-1041): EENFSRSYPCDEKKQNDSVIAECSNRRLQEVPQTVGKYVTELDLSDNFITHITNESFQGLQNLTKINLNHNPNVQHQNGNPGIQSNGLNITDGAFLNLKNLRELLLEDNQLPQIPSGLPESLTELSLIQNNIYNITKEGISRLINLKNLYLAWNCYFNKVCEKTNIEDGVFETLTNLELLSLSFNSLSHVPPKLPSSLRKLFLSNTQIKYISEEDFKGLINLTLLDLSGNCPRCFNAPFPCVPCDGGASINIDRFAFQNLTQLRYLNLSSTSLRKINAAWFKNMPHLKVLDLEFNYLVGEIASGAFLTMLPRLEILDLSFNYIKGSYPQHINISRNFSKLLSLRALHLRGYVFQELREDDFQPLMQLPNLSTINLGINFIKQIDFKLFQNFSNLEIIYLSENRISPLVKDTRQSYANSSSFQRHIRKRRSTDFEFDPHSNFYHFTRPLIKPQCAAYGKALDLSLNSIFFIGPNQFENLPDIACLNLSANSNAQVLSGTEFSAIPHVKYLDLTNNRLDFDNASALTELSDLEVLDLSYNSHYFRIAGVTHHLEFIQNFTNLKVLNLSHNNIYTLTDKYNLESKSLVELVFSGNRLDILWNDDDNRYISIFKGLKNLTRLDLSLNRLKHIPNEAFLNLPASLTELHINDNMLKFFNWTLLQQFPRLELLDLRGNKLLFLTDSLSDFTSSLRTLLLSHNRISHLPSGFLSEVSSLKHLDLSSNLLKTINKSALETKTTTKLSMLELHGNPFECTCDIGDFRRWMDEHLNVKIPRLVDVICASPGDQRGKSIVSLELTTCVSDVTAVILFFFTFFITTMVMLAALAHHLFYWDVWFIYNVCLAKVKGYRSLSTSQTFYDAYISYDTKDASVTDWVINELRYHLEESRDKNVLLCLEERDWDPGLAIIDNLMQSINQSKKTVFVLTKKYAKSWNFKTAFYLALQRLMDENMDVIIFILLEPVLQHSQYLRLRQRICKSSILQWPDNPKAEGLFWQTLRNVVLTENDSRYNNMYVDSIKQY
# Summary of the method: as §1
Structure (SMILES),IC50 (human TLR9),IC50 (human TLR7),IC50 (human TLR8)
"CC(C)c1c(-c2cc(C(C)(C)O)c3nccn3c2)[nH]c2ccc(C3CCNCC3)cc12 [Example 134, 2-(6-(3-isopropyl-5-(piperidin-4-yl)-1H-indol-2-yl)imidazo[1,2-a]pyridin-8-yl)propan-2-ol]",100 to 1000 nM,< 100 nM,100 to 1000 nM
"CC(C)c1c(-c2ccnc3[nH]ncc23)[nH]c2ccc(C3CCN(C4CCOCC4)CC3)cc12 [Example 682, 4-(3-isopropyl-5-(1-(tetrahydro-2H-pyran-4-yl)piperidin-4-yl)-1H-indol-2-yl)-1H-pyrazolo[3,4-b]pyridine]",1000 to 50000 nM,< 100 nM,< 100 nM
"CCc1c(-c2ccnc3[nH]cc(C(C)C)c23)[nH]c2ccc(C3CCNCC3)cc12 [Example 221, 4-(3-ethyl-5-(piperidin-4-yl)-1H-indol-2-yl)-3-isopropyl-1H-pyrrolo[2,3-b]pyridine]",100 to 1000 nM,100 to 1000 nM,1000 to 50000 nM
"CNCCN1CCC(c2ccc3[nH]c(-c4ccc5nc(C)cn5c4)c(C(C)C)c3c2)CC1 [Example 676, 2-(4-(3-isopropyl-2-(2-methylimidazo[1,2-a]pyridin-6-yl)-1H-indol-5-yl)piperidin-1-yl)-N-methylethan-1-amine]",100 to 1000 nM,< 100 nM,100 to 1000 nM
"Cc1ccnc2c1c(-c1[nH]c3ccc(C4CCN(CC(=O)N(C)C)CC4)cc3c1C(C)C)cn2C [Example 285, 2-(4-(2-(1,4-dimethyl-1H-pyrrolo[2,3-b]pyridin-3-yl)-3-isopropyl-1H-indol-5-yl)piperidin-1-yl)-N,N-dimethylacetamide]",1000 to 50000 nM,< 100 nM,< 100 nM
"CC(C)c1c(-c2cnc3[nH]c(=O)oc3c2)[nH]c2ccc(C3CCNCC3)cc12 [Example 16, 6-(3-isopropyl-5-(piperidin-4-yl)-1H-indol-2-yl)oxazolo[4,5-b]pyridin-2(3H)-one]",1000 to 50000 nM,100 to 1000 nM,> 3130 nM
"CNC(=O)CN1CCC(c2ccc3[nH]c(-c4cc(Cl)c5ncccc5c4)c(C(C)C)c3c2)CC1 [Example 381, 2-(4-(2-(8-chloroquinolin-6-yl)-3-isopropyl-1H-indol-5-yl)piperidin-1-yl)-N-methylacetamide]",1000 to 50000 nM,< 100 nM,100 to 1000 nM

# Other lines, results leading:
IC50 (human TLR9),IC50 (human TLR7),IC50 (human TLR8),Structure (SMILES)
1000 to 50000 nM,< 100 nM,< 100 nM,"Cc1nnn2ccc(-c3[nH]c4ccc(C5CCN(C6COC6)CC5)cc4c3C(C)C)cc12 [Example 743, 5-(3-isopropyl-5-(1-(oxetan-3-yl)piperidin-4-yl)-1H-indol-2-yl)-3-methyl-[1,2,3]triazolo[1,5-a]pyridine]"
1000 to 50000 nM,< 100 nM,< 100 nM,"Cc1cc2nnnn2cc1-c1[nH]c2ccc(C3CCN(Cc4ccn(C)n4)CC3)cc2c1C(C)C [Example 887, 6-(3-isopropyl-5-(1-((1-methyl-1H-pyrazol-3-yl)methyl)piperidin-4-yl)-1H-indol-2-yl)-7-methyltetrazolo[1,5-a]pyridine]"
1000 to 50000 nM,< 100 nM,< 100 nM,"Cc1cc(-c2[nH]c3ccc(C4CCN(C(=O)CCN5CCC(F)(F)CC5)CC4)cc3c2C(C)C)cn2nnnc12 [Example 628, 3-(4,4-difluoropiperidin-1-yl)-1-(4-(3-isopropyl-2-(8-methyltetrazolo[1,5-a]pyridin-6-yl)-1H-indol-5-yl)piperidin-1-yl)propan-1-one]"
1000 to 50000 nM,100 to 1000 nM,< 100 nM,"Cc1c(-c2[nH]c3ccc(C4CCNCC4)cc3c2C(C)C)ccc2nnnn12 [Example 72, 6-(3-isopropyl-5-(piperidin-4-yl)-1H-indol-2-yl)-5-methyltetrazolo[1,5-a]pyridine]"
1000 to 50000 nM,< 100 nM,< 100 nM,"CNC(=O)CN1CCC(c2ccc3[nH]c(-c4nn5ncnc5c(OC)c4C)c(C(C)C)c3c2)CC1 [Example 281, 2-(4-(3-isopropyl-2-(8-methoxy-7-methyl-[1,2,4]triazolo[1,5-b]pyridazin-6-yl)-1H-indol-5-yl)piperidin-1-yl)-N-methylacetamide]"
1000 to 50000 nM,100 to 1000 nM,100 to 1000 nM,"CCc1c(-c2ccnc3[nH]ncc23)[nH]c2ccc(C3CCN(C(=O)C4CCNCC4)CC3)cc12 [Example 647, (4-(3-ethyl-2-(1H-pyrazolo[3,4-b]pyridin-4-yl)-1H-indol-5-yl)piperidin-1-yl)(piperidin-4-yl)methanone]"
100 to 1000 nM,< 100 nM,< 100 nM,"Cc1nc[nH]c1CN1CCC(c2ccc3[nH]c(-c4ccnc5[nH]cnc45)c(C(C)C)c3c2)CC1 [Example 861, 7-(3-isopropyl-5-(1-((4-methyl-1H-imidazol-5-yl)methyl)piperidin-4-yl)-1H-indol-2-yl)-3H-imidazo[4,5-b]pyridine]"
